Source: US20210062159A1, “CELL AGGREGATION PROMOTER” (KANEKA CORPORATION, priority 2017, published 2021)

Assays:
Format in all cases: cell-based
[1] = tested on: human iPS cells (TkDN4-M cell lines); assay: Cell aggregation assay, suspension culture, phase contrast microscopy at Day 1; conditions: 10 μM CCG-1423, 2.5 μM Y-27632, Day 1 of culture, 12-well plate, FIG. 1
Method: TkDN4-M cell lines (Institute of Medical Science, The University of Tokyo) were used as human iPS cells. Human iPS cells were seeded on cell culture dishes coated with Vitronectin (Thermo Fisher Scientific Co., Ltd.) and subjected to a maintenance culture using Essential 8™ (Thermo Fisher Scientific Co., Ltd.) as the culture medium. Accutase (Thermo Fisher Scientific Co., Ltd.) was used as a cell detachment agent during passage. In addition, when the cells were seeded, Y-27632 (Wako Pure Chemical Industries, Ltd.) at a concentration of 10 μM was added to a culture medium. The culture medium was changed every day. For experiments, human iPS cells (the number of passage was 50 or less) were used.
(§1) Human iPS cells that had been cultured using the protocol of Example 1 were treated with Accutase for 3 to 5 minutes and were detached and dispersed to single cells. The resulting cells were suspended in Essential 8™ culture medium containing a final concentration of 5 mg/mL of BSA (Wako Pure Chemical Industries, Ltd.) and a final concentration of 2.5 μM of Y-27632 (Wako Pure Chemical Industries, Ltd.), and a portion thereof was stained with trypan blue and the number of cells was counted. The cell suspension was prepared so as to contain 2×10^5 cells per ml. […]

[2] = tested on: human iPS cells (TkDN4-M cell lines); assay: Number of dead cells, Cytotoxicity LDH Assay Kit-WST, Day 1 of suspension culture; conditions: 10 μM CCG-1423, 2.5 μM Y-27632, Day 1 of culture, FIG. 2
Method: as §1, with “ml. Separately, the cell aggregation promoter was adjusted so that the final concentration of CCG-1423 (Cayman, 10010350) was 4.55 mg/mL (10 mM), then the adjusted cell aggregation promoter was added to the cell suspension so that the final concentration of CCG-1423 was 10 μM. Then the cells were seeded at a ratio of 1.3 mL/well in a 12-well plate for suspension culture (Sumitomo Bakelite Co., Ltd.).” for “ml.”
At the next day after the start of culture (Day 1 of culture), images were obtained by phase contrast microscopy, and the number of dead cells was calculated with Cytotoxicity LDH Assay Kit-WST (Peer Chemistry Research Institute, Inc.).

[3] = tested on: human iPS cells (TkDN4-M cell lines); assay: Cell aggregate formation and size (widest portion) in swirling suspension culture, phase contrast microscopy; conditions: for Number of cell aggregates by size / Percentage of cell aggregates by size: CCG-1423 added
Method: A cell suspension was prepared in the same manner as in Example 2, and separately, the cell aggregation promoter was adjusted so that the final concentration of CCG-1423 (same as above) was 4.55 mg/mL (10 mM), then the adjusted cell aggregation promoter was added to the cell suspension so that the final concentration of CCG-1423 was 10 μM, and the cells were seeded at a ratio of 4 mL/well in a 6-well plate for suspension culture (Sumitomo Bakelite Co., Ltd.). The cell-seeded plate was subjected to a swirling culture on a rotary shaker (OPTIMA, Inc.) at a speed of 90 rpm along the horizontal plane to draw a circle with a swirling width (diameter) of 25 mm and cells were cultured in suspension under a condition at 5% CO2 and 37° C. After the next day of culture (Day 1 of culture), the culture medium was exchanged daily for a fresh culture medium (Essential 8™ culture medium containing BSA (Wako Pure Chemical Industries, Ltd.) at a final concentration of 5 mg/mL), and the culture continued until 5 days after the start of culture. A control test was conducted by culturing in the same way except for using CCG-1423 and Y-27632 free culture media. Images were obtained by phase contrast microscopy every day during culture. While 208 cell aggregates in images obtained at Day 1 of culture being observed and compared using a micrograph scale, the width (referred to as “φ”) of the widest portion of each cell aggregate was measured, distribution thereof was examined, and average±standard deviation was calculated. The concentration of glucose contained in the culture supernatant collected at the time of culture medium exchange was measured with biosensor BF-5iD (Prince Measuring Equipment Co., Ltd.) to calculate glucose consumption.

[4] = tested on: human iPS cells (TkDN4-M cell lines); assay: Glucose consumption of suspension culture (biosensor BF-5iD); conditions: Day 1 to Day 5 of culture, CCG-1423 added condition, FIG. 4
Method: A cell suspension was prepared in the same manner as in Example 2, and separately, the cell aggregation promoter was adjusted so that the final concentration of CCG-1423 (same as above) was 4.55 mg/mL (10 mM), then the adjusted cell aggregation promoter was added to the cell suspension so that the final concentration of CCG-1423 was 10 μM, and the cells were seeded at a ratio of 4 mL/well in a 6-well plate for suspension culture (Sumitomo Bakelite Co., Ltd.). The cell-seeded plate was subjected to a swirling culture on a rotary shaker (OPTIMA, Inc.) at a speed of 90 rpm along the horizontal plane to draw a circle with a swirling width (diameter) of 25 mm and cells were cultured in suspension under a condition at 5% CO2 and 37° C. […] While 208 cell aggregates in images obtained at Day 1 of culture being observed and compared using a micrograph scale, the width (referred to as “φ”) of the widest portion of each cell aggregate was measured, distribution thereof was examined, and average±standard deviation was calculated. The concentration of glucose contained in the culture supernatant collected at the time of culture medium exchange was measured with biosensor BF-5iD (Prince Measuring Equipment Co., Ltd.) to calculate glucose consumption.

[5] = tested on: human iPS cells (TkDN4-M cell lines); assay: Cell yield at Day 5 of suspension culture (trypan blue, hemocytometer); conditions: Day 5 of culture, aggregates formed with 10 μM CCG-1423, FIG. 5
Method: A cell suspension was prepared in the same manner as in Example 2, and separately, the cell aggregation promoter was adjusted so that the final concentration of CCG-1423 (same as above) was 4.55 mg/mL (10 mM), then the adjusted cell aggregation promoter was added to the cell suspension so that the final concentration of CCG-1423 was 10 μM, and the cells were seeded at a ratio of 4 mL/well in a 6-well plate for suspension culture (Sumitomo Bakelite Co., Ltd.). […] While 208 cell aggregates in images obtained at Day 1 of culture being observed and compared using a micrograph scale, the width (referred to as “φ”) of the widest portion of each cell aggregate was measured, distribution thereof was examined, and average±standard deviation was calculated. The concentration of glucose contained in the culture supernatant collected at the time of culture medium exchange was measured with biosensor BF-5iD (Prince Measuring Equipment Co., Ltd.) to calculate glucose consumption.
In addition, at Day 5 of culture, cell aggregates were collected, dispersed with Accutase, and then suspended in Essential 8™ culture medium containing 5 mg/mL BSA. A portion of this cell suspension was stained with trypan blue and the number of cells was counted. […] The resulting cells were analyzed on FACSVerse. […]
Cell yields were also measured at Day 5 of culture. […]

[6] = tested on: human iPS cells (TkDN4-M cell lines); assay: Percentage of cells positive for undifferentiation markers (SOX2, OCT4, Nanog), flow cytometry; conditions: Day 5 of culture, aggregates produced in medium comprising CCG-1423, FIG. 6
Method: In addition, at Day 5 of culture, cell aggregates were collected, dispersed with Accutase, and then suspended in Essential 8™ culture medium containing 5 mg/mL BSA. A portion of this cell suspension was stained with trypan blue and the number of cells was counted. After the above cell suspensions were centrifuged at 300 g for 3 minutes, the supernatant was then removed, and the cells were washed with PBS (phosphate buffered saline). Next, the cells were fixed with 4% paraformaldehyde (Wako Pure Chemical Industries, Ltd.) at room temperature for 20 minutes, then washed 3 times with PBS. After cells were resuspended with 300 μL of PBS, 3 mL of cold methanol was added while stirring with voltex, and permeabilized at −20° C. overnight or more. After 3 washes with 3% FBS (fetal bovine serum)/PBS, cells were resuspended with 3% FBS (fetal bovine serum)/PBS and blocked at room temperature for 30 minutes to 1 hour. Subsequently, the cells were stained with fluorescently labeled anti-SOX2 antibodies (Cat. No. 656110, BioLegend, Inc.) and fluorescently labeled anti-OCT4 antibodies (Cat. No. 653703, BioLegend, Inc.) and fluorescently labeled anti-Nanog antibodies (Cat. No. 674010, BioLegend, Inc.) at 4° C. for 30 minutes to 1 hour. After washed once with 3% FBS (fetal bovine serum)/PBS, the cells were made to pass through a cell strainer. The resulting cells were analyzed on FACSVerse. A control test was conducted using cells that were treated in the same way except for reacting, instead of the above three antibodies (fluorescently labeled anti-SOX2 antibody, fluorescently labeled anti-OCT4 antibody, fluorescently labeled anti-Nanog antibody), with three fluorescently labeled isotype control antibodies (Cat. No. 400129, Cat. No. 400314, Cat. No. 400136; BioLegend, Inc.) corresponding to each of the above three antibodies.

[7] = Day 1 of culture, 10 μM CCG-1423
[8] = size range 40- μm, Day 1 of culture
[9] = size range 60- μm, Day 1 of culture
[10] = size range 80- μm, Day 1 of culture
[11] = size range 100- μm, Day 1 of culture
[12] = size range 120- μm, Day 1 of culture
[13] = size range 140- μm, Day 1 of culture
[14] = size range 160- μm, Day 1 of culture
[15] = size range 180- μm, Day 1 of culture
[16] = size range 200- μm, Day 1 of culture
[17] = size range 220- μm, Day 1 of culture
[18] = size range 240- μm, Day 1 of culture
[19] = size range 260- μm, Day 1 of culture
[20] = size range 280- μm, Day 1 of culture
[21] = size range 300- μm, Day 1 of culture

CC(ONC(=O)c1cc(C(F)(F)F)cc(C(F)(F)F)c1)C(=O)Nc1ccc(Cl)cc1 (stereo not drawn) [CCG-1423, N-[2-[4(4-chlorophenyl)amino]-1-methyl-2-oxoethoxy]-3,5-bis(trifluoromethyl)-benzamide]
cell aggregation compared to the control test (0 μM CCG-1423) [1]: aggregation was promoted | number of dead cells compared to the control test (0 μM CCG-1423) [2]: reduced | cell aggregate formation after seeding to Day 1 of culture ([3]; 10 μM CCG-1423, 6-well plate, FIG. 3): cell aggregates were formed | cell aggregates on continued culture to Day 5 ([3]; 10 μM CCG-1423 until Day 1, then medium exchanged daily, Day 1 to Day 5, FIG. 3): cell aggregates were expanded | percentage of cell aggregates with size (diameter) 60 μm or more and 300 μm or less [3, 7]: 99.5% | percentage of cell aggregates with size (diameter) 80 μm or more and 300 μm or less [3, 7]: 98.5% | percentage of cell aggregates with size (diameter) 100 μm or more and 300 μm or less [3, 7]: 98.5% | average±standard deviation of cell aggregate size (diameter) ([3]; Day 1 of culture, 10 μM CCG-1423, 208 cell aggregates): 171.3±22.8 μm | percentage of cell aggregates with size (diameter) 40 μm or more and 300 μm or less ([3]; Day 1 of culture, 10 μM CCG-1423, to total cell aggregate count): 100% | Number of cell aggregates by size [3, 8]: 1 | Percentage of cell aggregates by size [3, 8]: 0.5% | Number of cell aggregates by size [3, 9]: 2 | Percentage of cell aggregates by size [3, 9]: 1.0% | Number of cell aggregates by size [3, 10]: 0 | Percentage of cell aggregates by size [3, 10]: 0.0% | Number of cell aggregates by size [3, 11]: 2 | Percentage of cell aggregates by size [3, 11]: 1.0% | Number of cell aggregates by size [3, 12]: 6 | Percentage of cell aggregates by size [3, 12]: 2.9% | Number of cell aggregates by size [3, 13]: 39 | Percentage of cell aggregates by size [3, 13]: 18.8% | Number of cell aggregates by size [3, 14]: 87 | Percentage of cell aggregates by size [3, 14]: 41.8% | Number of cell aggregates by size [3, 15]: 60 | Percentage of cell aggregates by size [3, 15]: 28.8% | Number of cell aggregates by size [3, 16]: 9 | Percentage of cell aggregates by size [3, 16]: 4.3% | Number of cell aggregates by size [3, 17]: 2 | Percentage of cell aggregates by size [3, 17]: 1.0% | Number of cell aggregates by size [3, 18]: 0 | Percentage of cell aggregates by size [3, 18]: 0.0% | Number of cell aggregates by size [3, 19]: 0 | Percentage of cell aggregates by size [3, 19]: 0.0% | Number of cell aggregates by size [3, 20]: 0 | Percentage of cell aggregates by size [3, 20]: 0.0% | Number of cell aggregates by size [3, 21]: 0 | Percentage of cell aggregates by size [3, 21]: 0.0% | glucose consumption [4]: increased daily | proliferation of the number of seeded cells (8×10^5 cells/well) [5]: approximately 8.5 fold | percentage of cells positive for Nanog [6]: ≥ 99% | percentage of cells positive for OCT4 [6]: ≥ 97% | percentage of cells positive for SOX2 [6]: ≥ 99%
